Reference: ChEMBL document CHEMBL5321213, “Nicolaioidesin C: An Antiausterity Agent Shows Promising Antitumor Activity in a Pancreatic Cancer Xenograft Mouse Model” (J Nat Prod, 2023)
Activity calls are given as the source filed them. No cut-off for these calls is given here.

What was measured:
MIA PaCa-2 [1] = assay: Antitumor activity against human MIA PaCa-2 cells xenografted in athymic BALB/c-nu mouse assessed as fold change in 5'-methylthioadenosine level in tumor at 2 mg/kg/day, ip administered five times per week for 4 weeks by LC-MS analysis; type: functional
MIA PaCa-2 [2] = assay: Antimetastatic activity in human MIA PaCa-2 cells in DMEM media assessed as inhibition of colony formation at 40 uM incubated for 24 hrs followed by replacement with fresh medium and measured after 10 days by crystal violet staining-based assay relative to control; type: functional
MIA PaCa-2 [3] = assay: Antitumor activity against human MIA PaCa-2 cells xenografted in athymic BALB/c-nu mouse assessed as fold change in cytidine 5'-monophosphate-N-acetylneuraminic acid level in tumor at 10 mg/kg/day, ip administered five times per week for 4 weeks by LC-MS analysis; type: functional
[4] = Toxicity in athymic BALB/c-nu mouse xenografted with human MIA PaCa-2 cells assessed as body weight loss at 2 to 10 mg/kg/day, ip administered five times per week for 4 weeks; type: organism-based; conditions: in vivo, 672 h, dose 2-10 mg/kg/day
MIA PaCa-2 [5] = assay: Preferential cytotoxicity against human MIA PaCa-2 cells in nutrient-deprived medium assessed as alteration in cell morphology by measuring leakage of cell components at 5 uM measured after 24 hrs by acridine orange and ethidium bromide dual fluorescent staining based imaging analysis; type: functional
PANC-1 [6] = assay: Antimetastatic activity in human PANC-1 cells in DMEM media assessed as inhibition of colony formation at 10 uM incubated for 24 hrs followed by replacement with fresh medium and measured after 10 days by crystal violet staining-based assay relative to control; type: functional
MIA PaCa-2 [7] = assay: Antitumor activity against human MIA PaCa-2 cells xenografted in athymic BALB/c-nu mouse assessed as fold change in nicotinamide level in tumor at 10 mg/kg/day, ip administered five times per week for 4 weeks by LC-MS analysis; type: functional
MIA PaCa-2 [8] = assay: Antitumor activity against human MIA PaCa-2 cells xenografted in athymic BALB/c-nu mouse assessed as fold change in 4-(methylthio)-2-oxobutyricacid level in tumor at 10 mg/kg/day, ip administered five times per week for 4 weeks by LC-MS analysis; type: functional
MIA PaCa-2 [9] = assay: Antitumor activity against human MIA PaCa-2 cells xenografted in athymic BALB/c-nu mouse assessed as fold change in sphinganine level in tumor at 2 mg/kg/day, ip administered five times per week for 4 weeks by LC-MS analysis; type: functional
MIA PaCa-2 [10] = assay: Antitumor activity against human MIA PaCa-2 cells xenografted in athymic BALB/c-nu mouse assessed as fold change in cytosine level in tumor at 2 mg/kg/day, ip administered five times per week for 4 weeks by LC-MS analysis; type: functional
MIA PaCa-2 [11] = assay: Antitumor activity against human MIA PaCa-2 cells xenografted in athymic BALB/c-nu mouse assessed as fold change in lysine level in tumor at 10 mg/kg/day, ip administered five times per week for 4 weeks by LC-MS analysis; type: functional
MIA PaCa-2 [12] = assay: Antitumor activity against human MIA PaCa-2 cells xenografted in athymic BALB/c-nu mouse assessed as fold change in desthiobiotin level in tumor at 2 mg/kg/day, ip administered five times per week for 4 weeks by LC-MS analysis; type: functional
MIA PaCa-2 [13] = assay: Antitumor activity against human MIA PaCa-2 cells xenografted in athymic BALB/c-nu mouse assessed as fold change in cytidine diphosphate ethanolamine level in tumor at 2 mg/kg/day, ip administered five times per week for 4 weeks by LC-MS analysis; type: functional
MIA PaCa-2 [14] = assay: Antitumor activity against human MIA PaCa-2 cells xenografted in athymic BALB/c-nu mouse assessed as fold change in desthiobiotin level in tumor at 10 mg/kg/day, ip administered five times per week for 4 weeks by LC-MS analysis; type: functional
MIA PaCa-2 [15] = assay: Antitumor activity against human MIA PaCa-2 cells xenografted in athymic BALB/c-nu mouse assessed as fold change in asparagine level in tumor at 10 mg/kg/day, ip administered five times per week for 4 weeks by LC-MS analysis; type: functional
MIA PaCa-2 [16] = assay: Antitumor activity against human MIA PaCa-2 cells xenografted in athymic BALB/c-nu mouse assessed as fold change in alanine level in tumor at 10 mg/kg/day, ip administered five times per week for 4 weeks by LC-MS analysis; type: functional
MIA PaCa-2 [17] = assay: Antitumor activity against human MIA PaCa-2 cells xenografted in athymic BALB/c-nu mouse assessed as reduction in LC3-1 level in tumor at 2 to 10 mg/kg/day, ip administered five times per week for 4 weeks by immunohistochemistry analysis; type: functional, organism-based; conditions: dose 2-10 mg/kg/day
MIA PaCa-2 [18] = assay: Antitumor activity against human MIA PaCa-2 cells xenografted in athymic BALB/c-nu mouse assessed as fold change in glycerol-3-phosphate level in tumor at 10 mg/kg/day, ip administered five times per week for 4 weeks by LC-MS analysis; type: functional
MIA PaCa-2 [19] = assay: Antitumor activity against human MIA PaCa-2 cells xenografted in athymic BALB/c-nu mouse assessed as fold change in alanine level in tumor at 2 mg/kg/day, ip administered five times per week for 4 weeks by LC-MS analysis; type: functional
MIA PaCa-2 [20] = assay: Antitumor activity against human MIA PaCa-2 cells xenografted in athymic BALB/c-nu mouse assessed as fold change in hypoxanthine level in tumor at 2 mg/kg/day, ip administered five times per week for 4 weeks by LC-MS analysis; type: functional
PANC-1 [21] = assay: Inhibition of autophagy in human PANC-1 cells in DMEM medium assessed as downregulation of LC3 protein expression at 5 to 20 uM measured after 6 hrs by Western blot analysis; type: functional, cell-based; conditions: dose 5-20 µM
MIA PaCa-2 [22] = assay: Antitumor activity against human MIA PaCa-2 cells xenografted in athymic BALB/c-nu mouse assessed as fold change in 4-(methylthio)-2-oxobutyric acid level in tumor at 2 mg/kg/day, ip administered five times per week for 4 weeks by LC-MS analysis; type: functional
MIA PaCa-2 [23] = assay: Antitumor activity against human MIA PaCa-2 cells xenografted in athymic BALB/c-nu mouse assessed as reduction in LC3-II level in tumor at 2 to 10 mg/kg/day, ip administered five times per week for 4 weeks by immunohistochemistry analysis; type: functional, organism-based; conditions: dose 2-10 mg/kg/day
PANC-1 [24] = assay: Preferential cytotoxicity against human PANC-1 cells in nutrient-deprived medium assessed as alteration in cell morphology by measuring cell blebbing at 5 uM measured after 24 hrs by acridine orange and ethidium bromide dual fluorescent staining based imaging analysis; type: functional
MIA PaCa-2 [25] = assay: Antitumor activity against human MIA PaCa-2 cells xenografted in athymic BALB/c-nu mouse assessed as fold change in cytidine 5'-monophosphate level in tumor at 10 mg/kg/day, ip administered five times per week for 4 weeks by LC-MS analysis; type: functional
MIA PaCa-2 [26] = assay: Inhibition of Akt/mTOR signaling pathway in human MIA PaCa-2 cells in DMEM media assessed as reduction in AKT phosphorylation at S473 residue at 5 to 20 uM measured after 6 hrs by Western blot analysis; type: cell-based; conditions: dose 5-20 µM
MIA PaCa-2 [27] = assay: Antitumor activity against human MIA PaCa-2 cells xenografted in athymic BALB/c-nu mouse assessed as reduction in p-mTOR level in tumor at 2 to 10 mg/kg/day, ip administered five times per week for 4 weeks by immunohistochemistry analysis; type: functional, organism-based; conditions: dose 2-10 mg/kg/day

In the case of COc1cc(O)c(C(=O)[C@@H]2CC=C(CCC=C(C)C)C[C@H]2c2ccccc2)c(O)c1, the “fold change (FC)” value (MIA PaCa-2 [1]) is reported as 0.33, the inhibition at 40 µM (MIA PaCa-2 [2]) is reported as 99% and the “fold change (FC)” value (MIA PaCa-2 [3]) is reported as 0.31. For the same molecule, the Activity [4] was “Non-Toxic”, the Activity (MIA PaCa-2 [5]) was “Active” and the inhibition at 10 µM (PANC-1 [6]) was 67%. For the same molecule, the “fold change (FC)” value (MIA PaCa-2 [7]) was 0.39, the “fold change (FC)” value (MIA PaCa-2 [8]) was 0.41 and the “fold change (FC)” value (MIA PaCa-2 [9]) was 1.87. The “fold change (FC)” value (MIA PaCa-2 [10]) was 0.73, the “fold change (FC)” value (MIA PaCa-2 [11]) was 0.29 and the “fold change (FC)” value (MIA PaCa-2 [12]) was 0.63. The “fold change (FC)” value (MIA PaCa-2 [13]) was 0.4, the “fold change (FC)” value (MIA PaCa-2 [14]) was 0.4 and the “fold change (FC)” value (MIA PaCa-2 [15]) was 0.29. For the same molecule, the “fold change (FC)” value (MIA PaCa-2 [16]) was 0.42, the Activity (MIA PaCa-2 [17]) was “Active” and the “fold change (FC)” value (MIA PaCa-2 [18]) was 0.24. The “fold change (FC)” value (MIA PaCa-2 [19]) was 0.49, the “fold change (FC)” value (MIA PaCa-2 [20]) was 0.57 and the inhibition (PANC-1 [21]) was “inactive”. The “fold change (FC)” value (MIA PaCa-2 [22]) was 0.48, the Activity (MIA PaCa-2 [23]) was “Active” and the Activity (PANC-1 [24]) was “Active”. For the same molecule, the “fold change (FC)” value (MIA PaCa-2 [25]) was 0.31, the inhibition (MIA PaCa-2 [26]) was “inactive” and the Activity (MIA PaCa-2 [27]) was “Active”.
